The target in experiment [1] is T1, human H3 receptor (Homo sapiens, UniProt Q9Y5N1).
T1 construct: expressed in transfected cells; host or cells: SK-N-MC cells
In words: H3 receptor binding, N-[3H]-α-methylhistamine displacement on SK-N-MC cell membranes. As to conditions: cloned human H3 receptor in SK-N-MC cell membranes; 0.8 nM N-[3H]-α-methylhistamine; 60 min at 25° C.

Experiment [2] has as its target T1, human H3 receptor. In words: Cyclic AMP accumulation, β-galactosidase reporter in SK-N-MC cells. Type of experiment: cell-based. As to conditions: read-out: pA2 (converted). As for the experimental part: Sublines of SK-N-MC cells were created that expressed a reporter construct and the human H3 receptor. The reporter gene (β-galactosidase) is under the control of multiple cyclic AMP responsive elements. In 96-well plates, histamine was added directly to the cell media followed 5 min later by an addition of forskolin (5 μM final concentration). When appropriate, antagonists were added 10 min prior to agonist addition. After a 6-h incubation at 37° C., the media was aspirated and the cells washed with 200 μL of phosphate-buffered saline followed by a second aspiration. Cells were lysed with 25 μL 0.1× assay buffer (10 mM Na-phosphate, pH 8, 0.2 mM MgSO4, 0.01 mM MnCl2) and incubated at rt for 10 min. Cells were then incubated for 10 min with 100 μL of 1× assay buffer containing 0.5% Triton and 40 mM β-mercaptoethanol. Color was developed using 25 μL of 1 mg/mL substrate solution (chlorophenolred β-D galactopyranoside; Roche Molecular Biochemicals, Indianapolis, Ind.) Color was quantitated on a microplate reader at absorbance 570 nm.

For another experiment, the target named is T2, human SERT (Homo sapiens, UniProt P31645).
T2 construct: expressed in transfected cells; host or cells: HEK293
T2 sequence (P31645 whole entry): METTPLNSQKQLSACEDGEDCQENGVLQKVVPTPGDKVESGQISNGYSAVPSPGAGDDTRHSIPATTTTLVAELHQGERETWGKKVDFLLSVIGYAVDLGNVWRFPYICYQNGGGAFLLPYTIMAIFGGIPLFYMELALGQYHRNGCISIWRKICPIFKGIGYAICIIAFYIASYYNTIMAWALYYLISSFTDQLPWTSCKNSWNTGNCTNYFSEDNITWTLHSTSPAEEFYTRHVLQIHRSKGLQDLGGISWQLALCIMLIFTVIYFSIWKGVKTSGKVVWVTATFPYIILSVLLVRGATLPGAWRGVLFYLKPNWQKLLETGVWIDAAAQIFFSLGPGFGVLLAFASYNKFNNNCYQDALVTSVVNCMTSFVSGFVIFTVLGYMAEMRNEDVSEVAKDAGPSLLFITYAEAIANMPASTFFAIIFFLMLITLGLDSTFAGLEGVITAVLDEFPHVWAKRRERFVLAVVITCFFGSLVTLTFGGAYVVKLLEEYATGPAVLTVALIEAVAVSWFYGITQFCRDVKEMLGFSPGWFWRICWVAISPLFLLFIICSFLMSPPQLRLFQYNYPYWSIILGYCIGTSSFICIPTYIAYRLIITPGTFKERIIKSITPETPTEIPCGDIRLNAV
In words: Human SERT binding, 3H-citalopram displacement on HEK293 membranes. As to conditions: HEK293 membranes expressing the human SERT, rt for 1 h. As for the experimental part:
Homogenized HEK293 (Human Embryonic Kidney) membranes expressing the human SERT were incubated with ^3H-citalopram (SERT) at rt for 1 h in 50 mM Tris, 120 mM NaCl, 5 mM KCl (pH 7.4). […] The membranes were washed and the radioactivity was counted as above.

The next experiment concerns the target Rat SERT (Rattus norvegicus, UniProt P31652). In words: Rat brain SERT binding, [3H]-Citalopram displacement on rat brain membranes.
The mark [3] stands for this setting: read-out: Rat SERT Ki, rat brain membranes without cerebellum, 0.6 nM [3H]-Citalopram, 60 min at 25° C.

SMILES strings stand for the structures. Read-outs that look alike come from different tables or passages of the source.

A word on the Ki: it is the dissociation constant of the complex between target and ligand, obtained from inhibition or displacement.

T1 sequence (Q9Y5N1 whole entry): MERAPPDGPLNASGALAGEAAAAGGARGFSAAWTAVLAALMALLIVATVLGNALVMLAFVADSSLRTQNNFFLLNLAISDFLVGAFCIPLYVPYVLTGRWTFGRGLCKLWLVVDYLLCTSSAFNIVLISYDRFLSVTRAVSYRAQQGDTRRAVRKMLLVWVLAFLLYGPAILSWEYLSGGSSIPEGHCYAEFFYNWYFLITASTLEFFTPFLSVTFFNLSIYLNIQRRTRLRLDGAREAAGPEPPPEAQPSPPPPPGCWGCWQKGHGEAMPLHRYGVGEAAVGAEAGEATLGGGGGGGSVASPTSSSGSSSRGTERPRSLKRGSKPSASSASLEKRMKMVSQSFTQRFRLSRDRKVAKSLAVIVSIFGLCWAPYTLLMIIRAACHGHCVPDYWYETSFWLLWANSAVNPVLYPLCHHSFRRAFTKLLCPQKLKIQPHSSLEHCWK
Chain of Rat SERT (P31652 whole entry): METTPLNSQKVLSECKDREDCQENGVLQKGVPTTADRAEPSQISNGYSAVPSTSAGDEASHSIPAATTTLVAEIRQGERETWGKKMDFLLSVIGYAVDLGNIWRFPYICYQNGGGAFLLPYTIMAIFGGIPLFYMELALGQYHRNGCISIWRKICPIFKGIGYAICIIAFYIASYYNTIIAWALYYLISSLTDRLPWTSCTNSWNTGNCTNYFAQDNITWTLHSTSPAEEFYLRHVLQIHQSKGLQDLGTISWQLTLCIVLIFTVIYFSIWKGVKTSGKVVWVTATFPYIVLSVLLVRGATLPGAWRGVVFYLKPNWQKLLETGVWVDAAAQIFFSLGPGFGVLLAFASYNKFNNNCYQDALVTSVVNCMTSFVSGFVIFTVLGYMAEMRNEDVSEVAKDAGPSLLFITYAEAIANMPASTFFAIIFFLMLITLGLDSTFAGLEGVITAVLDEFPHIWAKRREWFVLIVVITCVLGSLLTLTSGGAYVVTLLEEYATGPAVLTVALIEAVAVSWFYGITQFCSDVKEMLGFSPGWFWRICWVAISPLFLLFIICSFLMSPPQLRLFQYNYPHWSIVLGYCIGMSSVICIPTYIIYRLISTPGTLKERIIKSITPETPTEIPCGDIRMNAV
Method for Rat SERT: The supernatant was removed and re-centrifuged at 15,000 rpm for 30 min. […] Membranes were incubated with 0.6 nM [^3H]-Citalopram plus/minus test compounds for 60 min at 25° C. and harvested by rapid filtration over GF/C glass fiber filters (pretreated with 0.3% polyethylenimine) followed by four washes with ice-cold buffer.

Regarding `CCN(CC)CCCOc1cc2c(cn1)C(c1ccc(Cl)c(Cl)c1)CNC2` (centres unmarked) [Example 21, {3-[8-(3,4-Dichloro-phenyl)-5,6,7,8-tetrahydro-[2,6]naphthyridin-3-yloxy]-propyl}-diethyl-amine], the Ki came to 7 nM at human H3 receptor [1], 26 nM on human SERT and 15 nM on Rat SERT (setting [3]). At human H3 receptor [2], the Kb is 15.8 nM.

Regarding `CN1Cc2cc(OCCCN3CCCCC3)ncc2C(c2ccc(F)cc2)C1` (centres unmarked) [Example 18, 4-(4-Fluoro-phenyl)-2-methyl-7-(3-piperidin-1-yl-propoxy)-1,2,3,4-tetrahydro-[2,6]-naphthyridine], the Ki on human H3 receptor [1] came to 9 nM; on human SERT, 362 nM; at Rat SERT (setting [3]), 186 nM. Further, the Kb at human H3 receptor [2] is 3.98 nM.

`COc1ccc(C2CNCc3cc(OCCCN4CCCCC4)ncc32)cc1` (centres unmarked) [Example 6, 4-(4-Methoxy-phenyl)-7-(3-piperidin-1-yl-propoxy)-1,2,3,4-tetrahydro-[2,6]-naphthyridine]: the inhibition constant Ki came to 4 nM at human H3 receptor [1]; 147 nM on human SERT; 2280 nM on Rat SERT (Rat SERT Ki (nM), rat brain membranes without cerebellum, 0.6 nM [3H]-Citalopram, 60 min at 25° C.). Besides, the Kb at human H3 receptor [2] was 6.31 nM.

Regarding `Clc1ccccc1C1CNCc2cc(OCCCN3CCCCC3)ncc21` (centres unmarked) [Example 25, 4-(2-Chloro-phenyl)-7-(3-piperidin-1-yl-propoxy)-1,2,3,4-tetrahydro-[2,6]naphthyridine], the results for the Ki on human H3 receptor [1], on human SERT and on Rat SERT (setting [3]) were 1 nM, 1330 nM and 194 nM, respectively. Further, the Kb at human H3 receptor [2] was 1 nM.

`Clc1ccc(C2CNCc3cc(OCCCN4CCCCC4)ncc32)cc1Cl` (racemic) [Example 15, 4-(3,4-Dichloro-phenyl)-7-(3-piperidin-1-yl-propoxy)-1,2,3,4-tetrahydro-[2,6]-naphthyridine]: the Ki on human H3 receptor [1] is 5 nM; on human SERT, 33 nM; at Rat SERT, 20 nM. The Kb at human H3 receptor [2] is 12.6 nM.

Consider `CN1Cc2cc(OCCCN3CCCCC3)ncc2C(c2ccccc2F)C1` (centres unmarked) [Example 2, 4-(2-Fluoro-phenyl)-2-methyl-7-(3-piperidin-1-yl-propoxy)-1,2,3,4-tetrahydro-[2,6]-naphthyridine], for which the Ki amounted to 2 nM on human H3 receptor [1], 768 nM on human SERT and 191 nM at Rat SERT (setting [3]). The Kb at human H3 receptor [2] was 1 nM.

On to `c1ccc(C2CNCc3cc(OCCCN4CCCCC4)ncc32)cc1` (centres unmarked) [Example 4, 4-Phenyl-7-(3-piperidin-1-yl-propoxy)-1,2,3,4-tetrahydro-[2,6]naphthyridine], for which the figures for the inhibition constant (Ki) at human H3 receptor [1], at human SERT and on Rat SERT (setting [3]) were 1 nM, 2330 nM and 1670 nM, respectively. In addition, the Kb on human H3 receptor [2] is 0.794 nM.

For the molecule `COc1ccc(C2CNCc3cc(OCC4CCN(C(C)C)CC4)ncc32)cc1` (centres unmarked) [Example 31, 7-(1-Isopropyl-piperidin-4-ylmethoxy)-4-(4-methoxy-phenyl)-1,2,3,4-tetrahydro-[2,6]-naphthyridine], the inhibitory constant (Ki) at human H3 receptor [1] was 4 nM; at human SERT, 93 nM; on Rat SERT (setting [3]) it was 15 nM. Besides, the Kb at human H3 receptor [2] is 3.98 nM.

As for `Clc1ccc(C2CNCc3cc(OCCCN4CCCCC4)ncc32)cc1` (centres unmarked) [Example 23, 4-(4-Chloro-phenyl)-7-(3-piperidin-1-yl-propoxy)-1,2,3,4-tetrahydro-[2,6]naphthyridine], the Ki was found to be 2 nM at human H3 receptor [1], 141 nM at human SERT and 30 nM on Rat SERT (setting [3]). Further, at human H3 receptor [2], the Kb is 3.98 nM.

`CCN(CC)CCCOc1cc2c(cn1)C(c1ccccc1)CN(C)C2` (centres unmarked) [Example 7, Diethyl-[3-(6-methyl-8-phenyl-5,6,7,8-tetrahydro-[2,6]naphthyridin-3-yloxy)-propyl]-amine]: the inhibition constant (Ki) came out at 4 nM at human H3 receptor [1], 2000 nM on human SERT and 583 nM at Rat SERT (setting [3]). The Kb on human H3 receptor [2] was 0.631 nM.

Take `Fc1ccc(C2CNCc3cc(OCCCN4CCCCC4)ncc32)cc1` (centres unmarked) [Example 17, 4-(4-Fluoro-phenyl)-7-(3-piperidin-1-yl-propoxy)-1,2,3,4-tetrahydro-[2,6]naphthyridine]: the Ki at human H3 receptor [1] turned out to be 2 nM; at human SERT it was 1030 nM; at Rat SERT, 312 nM. In addition, at human H3 receptor [2], the Kb was 2.51 nM.

Source of the values: US7417054B2, “Naphthyridine compounds” (Janssen Pharmaceutica N.V., priority 2005, dated 2008).
